Experiments:
Assay in all cases: relative viability (nuclei count vs DMSO), 5 days (fraction); higher = more cells survive
[1] = compound: CCN1CCC(CC1)N2C=C(N=N2)CNC3=CC4=C(C(=CN=C4C(=C3)Cl)C#N)NC5=CC(=C(C=C5)F)Cl [KIN001-266] + CS(=O)(=O)CCNCc1ccc(-c2ccc3ncnc(Nc4ccc(OCc5cccc(F)c5)c(Cl)c4)c3c2)o1 [Lapatinib] (partner 2 µM)
Method in brief: (§1)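 A single step with final 0.05% Triton X-100, 1% formaldehyde and 1 ug/ml Hoechst fixed the cells and stained nuclei 5 days after treatment. Lung cancer cell lines in 1536-well plates had been treated by pin tool the day after seeding with one drug alone or a fixed anchor-drug dose plus five library-drug doses (not always all listed) in √10 steps, and nuclei were counted on 4× images. Relative viability is the ratio of nuclei in treated wells to nuclei in vehicle wells, taken as the median of duplicate plates.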

[2] = compound: CCN1CCC(CC1)N2C=C(N=N2)CNC3=CC4=C(C(=CN=C4C(=C3)Cl)C#N)NC5=CC(=C(C=C5)F)Cl [KIN001-266] + CC(C)C[C@H](NC(=O)[C@H](Cc1ccccc1)NC(=O)c1cnccn1)B(O)O [Bortezomib] (partner 0.002 µM)
Method in brief: as §1

[3] = compound: CCN1CCC(CC1)N2C=C(N=N2)CNC3=CC4=C(C(=CN=C4C(=C3)Cl)C#N)NC5=CC(=C(C=C5)F)Cl [KIN001-266] + NC(=O)Nc1cc(-c2cccc(F)c2)sc1C(=O)N[C@H]1CCCNC1 [AZD7762] (partner 0.2 µM)
Method in brief: as §1

[4] = compound: CCN1CCC(CC1)N2C=C(N=N2)CNC3=CC4=C(C(=CN=C4C(=C3)Cl)C#N)NC5=CC(=C(C=C5)F)Cl [KIN001-266] + Nc1ncn([C@H]2C[C@H](O)[C@@H](CO)O2)c(=O)n1 [Decitabine] (partner 2 µM)
Method in brief: as §1

Row | Cell Line | relative viability ([1]; first compound 0.08 µM) | relative viability ([1]; first compound 0.253 µM) | relative viability ([1]; first compound 0.8 µM) | relative viability ([1]; first compound 2.53 µM) | relative viability ([1]; first compound 8 µM) | relative viability ([2]; first compound 0.08 µM) | relative viability ([2]; first compound 0.253 µM) | relative viability ([2]; first compound 0.8 µM) | relative viability ([2]; first compound 2.53 µM) | relative viability ([2]; first compound 8 µM) | relative viability ([3]; first compound 0.08 µM) | relative viability ([3]; first compound 0.253 µM) | relative viability ([3]; first compound 0.8 µM) | relative viability ([3]; first compound 2.53 µM) | relative viability ([3]; first compound 8 µM) | relative viability ([4]; first compound 0.08 µM) | relative viability ([4]; first compound 0.253 µM) | relative viability ([4]; first compound 0.8 µM) | relative viability ([4]; first compound 2.53 µM) | relative viability ([4]; first compound 8 µM)
1 | Calu-6 | 1.09 | 1.05 | 1.02 | 1 | 0.899 | 1.11 | 1.11 | 1.05 | 0.948 | 0.682 |  |  |  |  |  |  |  |  |  | 
2 | ChaGo-K-1 |  |  |  |  |  | 1.11 | 1.17 |  | 1.09 | 1.1 | 0.858 | 0.924 | 0.856 | 0.811 | 0.585 | 0.502 | 0.517 | 0.508 | 0.506 | 0.38
3 | EKVX | 0.284 | 0.182 | 0.204 | 0.202 | 0.171 | 1.12 | 1 | 1.01 | 1.06 | 1.01 | 0.706 | 0.824 | 0.728 | 0.667 | 0.657 | 0.364 | 0.422 | 0.368 | 0.364 | 0.358
4 | IA-LM | 0.967 | 0.752 | 0.989 | 0.861 | 0.474 | 0.838 | 0.729 | 0.94 | 0.736 | 0.674 |  |  |  |  |  |  |  |  |  | 
5 | LCLC-103H |  |  |  |  |  | 1.18 | 1.15 | 1.08 | 1.08 | 0.986 | 0.814 | 0.843 | 0.82 | 0.791 | 0.73 | 0.702 | 0.742 | 0.636 | 0.689 | 0.706
6 | LK-2 | 1.06 | 0.836 | 0.884 | 0.834 | 1.05 |  |  |  |  |  | 0.505 | 0.292 | 0.19 | 0.143 | 0.219 | 0.384 | 0.298 | 0.309 | 0.318 | 0.41
7 | NCI-H358 | 0.493 | 0.497 | 0.483 | 0.407 | 0.372 |  |  |  |  |  | 0.574 | 0.459 | 0.41 | 0.547 | 0.474 | 0.209 | 0.219 | 0.197 | 0.212 | 0.173
8 | NCI-H441 |  |  |  |  |  | 0.603 | 0.811 | 0.478 | 0.457 | 0.554 | 0.941 | 1.2 | 1.11 | 1.07 | 1.19 | 0.284 | 0.205 | 0.242 | 0.211 | 0.279
9 | NCI-H520 | 0.899 | 0.85 | 1.02 | 0.718 | 0.886 | 0.633 | 0.677 | 0.535 | 0.544 | 0.675 |  |  |  |  |  | 0.538 | 0.548 | 0.576 | 0.474 | 0.459
